“And” between values parts separate entries of the source, which are not always exact repeats. Identical values can stand only once.
Key:
CD4+ T cells = experiment: Tetramer-guided epitope mapping (TGEM): pMHCII tetramer staining of PBMC cultures stimulated with RV peptides; format: cell-based, human; conditions: one value per subject
Description: (§1) Peptide libraries consisting of 20mers with a 12 amino acid overlap were generated to span the VP1, VP2 and VP4 protein sequences of RV-A16, and VP1 and VP2 protein sequences of RV-A39 (UniprotKB accession # Q82122, Q5XLP5). […] Biologically relevant pMHCII complexes were identified by tetramer-guided epitope mapping (TGEM). This involved 2 steps: First, PBMC cultures established from subjects with known HLA-DR types were stimulated with RV peptide pools derived from VP1, VP2, or VP4, and then stained with pMHCII tetramer pools composed of HLA-DR molecules corresponding to those expressed in the test subject; Second, positive signals were de-convoluted by repeating and staining with single-peptide tetramers. Tetramers that gave strong positive signals (˜1% of total CD4+ T cells) in the single peptide-tetramer screen in more than one subject, were then re-tested for their ability to detect RV-specific CD4+ T cells in non-stimulated PBMCs (denoted as ex vivo analysis) in multiple subjects.
(§2) All experiments were performed in subjects expressing HLA-DR molecules corresponding to the selected tetramer. Precursor frequencies of circulating tetramer+ cells were then calculated by established methods. Tetramer+ cells were phenotyped for surface markers by staining PBMCs with PE-conjugated tetramers, labeling with anti-PE magnetic beads, enriching with an AutoMACS separator (Miltenyi Biotec, Auburn, Calif., USA), and then counterstaining for surface markers. A tetramer displaying an irrelevant peptide, GAD555-567, was used as a staining control. For simplicity, identified RV-A16 peptide epitopes were given a numerical designation.

RV-specific CD4+ T cells = experiment: Direct ex vivo pMHCII tetramer staining of non-stimulated PBMCs; format: cell-based, human; design: key to Validated: Y means validated; conditions: for Ex Vivo Frequency (# per 10^6 CD4): directly ex vivo, without culture, one value per subject; for Validated: reliable ex vivo signal
Description: as §1, §2

[1] = HLA allele 1*0404 tetramer, peptide-stimulated PBMC cultures
[2] = HLA allele 1*1501 tetramer, peptide-stimulated PBMC cultures
[3] = HLA allele 1*0701 tetramer, peptide-stimulated PBMC cultures
[4] = HLA allele 1*1101 tetramer, peptide-stimulated PBMC cultures
[5] = HLA allele 1*0101 tetramer, tetramer-positive CD4+ T cells in peptide-stimulated PBMC cultures
[6] = HLA allele 1*0401 tetramer, peptide-stimulated PBMC cultures
[7] = HLA allele 1*0301 tetramer, peptide-stimulated PBMC cultures

AAKDGHIGHIVMQYMYVPPG [VP1P17]
In Vitro Frequency (% CD4) (CD4+ T cells; [1]): 2.00 % CD4 and 2.99 % CD4 and 2.60 % CD4 | Ex Vivo Frequency (# per 10^6 CD4) (RV-specific CD4+ T cells; HLA allele 1*0404 tetramer): 112 # per 10^6 CD4

ASKFHQGTLLVVMIPEHQLA [VP2P15]
In Vitro Frequency (% CD4) (CD4+ T cells; [1]): 0.98 % CD4 and 0.81 % CD4 | In Vitro Frequency (% CD4) (CD4+ T cells; [2]): 0.55 % CD4 and 0.53 % CD4

EITMVPSVAAKDGHIGHIVM [VP1P16]
In Vitro Frequency (% CD4) (CD4+ T cells; [3]): 0.60 % CD4 and 0 % CD4

EQLHKVKVVTRIYHKAKHTK [VP1P29]
In Vitro Frequency (% CD4) (CD4+ T cells; [4]): 3.35 % CD4 and 2.79 % CD4 | Ex Vivo Frequency (# per 10^6 CD4) (RV-specific CD4+ T cells; HLA allele 1*1101 tetramer): 0 # per 10^6 CD4 (2×) and 3 # per 10^6 CD4

FTYARFDSEITMVPSVAAKD [VP1P15]
In Vitro Frequency (% CD4) (CD4+ T cells; [3]): 0.26 % CD4 and 0 % CD4

FWQHGQPFPRFSLPFLSIAS [VP1P22]
In Vitro Frequency (% CD4) (CD4+ T cells; HLA allele DRB5 tetramer, peptide-stimulated PBMC cultures): 3.52 % CD4 and 0.74 % CD4 | Ex Vivo Frequency (# per 10^6 CD4) (RV-specific CD4+ T cells; HLA allele DRB5 tetramer): 10 # per 10^6 CD4 and 4 # per 10^6 CD4

GIFGENMFYHFLGRSGYTVH [VP2P12]
In Vitro Frequency (% CD4) (CD4+ T cells; [5]): 0.63 % CD4 and 0 % CD4 and 1.23 % CD4 | In Vitro Frequency (% CD4) (CD4+ T cells; [4]): 1.55 % CD4 and 0 % CD4 and 0.38 % CD4

HIVMQYMYVPPGAPIPTTRN [VP1P18]
In Vitro Frequency (% CD4) (CD4+ T cells; [5]): 3.51 % CD4 and 0 % CD4 (2×) | In Vitro Frequency (% CD4) (CD4+ T cells; [6]): 0 % CD4 and 0.65 % CD4 | In Vitro Frequency (% CD4) (CD4+ T cells; [1]): 1.84 % CD4 and 4.22 % CD4 and 2.76 % CD4 | Ex Vivo Frequency (# per 10^6 CD4) (RV-specific CD4+ T cells; HLA allele 1*0401 tetramer): 2 # per 10^6 CD4 | Ex Vivo Frequency (# per 10^6 CD4) (RV-specific CD4+ T cells; HLA allele 1*0404 tetramer): 247 # per 10^6 CD4 and 10 # per 10^6 CD4 and 52 # per 10^6 CD4 and 5 # per 10^6 CD4 | Validated (RV-specific CD4+ T cells; HLA allele 1*0404 tetramer): Y

ISNIVPITVSISPMCAEFSG [VP2P30]
In Vitro Frequency (% CD4) (CD4+ T cells; [2]): 0.46 % CD4 and 0 % CD4

ITVSISPMCAEFSGARAKTV [VP2P31]
In Vitro Frequency (% CD4) (CD4+ T cells; [2]): 0.37 % CD4 and 0 % CD4

LDSKMWNSTSKGWWWKLPDA [VP2P9]
In Vitro Frequency (% CD4) (CD4+ T cells; [4]): 0.22 % CD4 and 0 % CD4 (2×)

LLGNLLIFPHQFINLRSNNS [VP2P23]
In Vitro Frequency (% CD4) (CD4+ T cells; [5]): 1.6 % CD4 and 3.19 % CD4 and 1.58 % CD4

LLVVMIPEHQLATVNKGNVN [VP2P16]
In Vitro Frequency (% CD4) (CD4+ T cells; [2]): 0 % CD4 and 3 % CD4

NEKQPSDDNWLNFDGTLLGN [VP2P21]
In Vitro Frequency (% CD4) (CD4+ T cells; [7]): 1.57 % CD4 and 0.87 % CD4 | In Vitro Frequency (% CD4) (CD4+ T cells; [6]): 5.13 % CD4 and 0.89 % CD4 | In Vitro Frequency (% CD4) (CD4+ T cells; [1]): 0 % CD4 and 0.65 % CD4 | Ex Vivo Frequency (# per 10^6 CD4) (RV-specific CD4+ T cells; HLA allele 1*0301 tetramer): 29 # per 10^6 CD4 and 4 # per 10^6 CD4 and 6 # per 10^6 CD4 | Validated (RV-specific CD4+ T cells; HLA allele 1*0301 tetramer): Y | Ex Vivo Frequency (# per 10^6 CD4) (RV-specific CD4+ T cells; HLA allele 1*0401 tetramer): 9 # per 10^6 CD4 and 63 # per 10^6 CD4 and 3 # per 10^6 CD4 | Validated (RV-specific CD4+ T cells; HLA allele 1*0401 tetramer): Y

NWLNFDGTLLGNLLIFPHQF [VP2P22]
In Vitro Frequency (% CD4) (CD4+ T cells; [5]): 0.35 % CD4 and 0 % CD4 (2×) | In Vitro Frequency (% CD4) (CD4+ T cells; [7]): 2.61 % CD4 and 0.75 % CD4 | In Vitro Frequency (% CD4) (CD4+ T cells; [6]): 3.38 % CD4 and 0.89 % CD4 | In Vitro Frequency (% CD4) (CD4+ T cells; [4]): 0 % CD4 (2×) and 1.31 % CD4 | Ex Vivo Frequency (# per 10^6 CD4) (RV-specific CD4+ T cells; HLA allele 1*0401 tetramer): 1 # per 10^6 CD4
